According to PubChem BioAssay (NCI):
Several values for one entry are separate records, joined by “and”; a condition that tells them apart may be missing. Equal entries are not always repeated.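 Grown in 96-well plates, cells were treated for 48 hours with each compound at five concentrations. Insufficient inhibition: endpoint recorded as highest concentration tested. GI50 marks 50% less growth. TGI: concentration producing complete growth inhibition.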

Legend:
Test in all cases: NCI anticancer screen, dose series, 48 h
NCI-H522 lung = system: NCI-H522 lung
SK-OV-3 ovarian = system: SK-OV-3 ovarian
HCC-2998 colon = system: HCC-2998 colon
OVCAR-4 ovarian = system: OVCAR-4 ovarian
SK-MEL-5 melanoma = system: SK-MEL-5 melanoma
IGROV1 ovarian = system: IGROV1 ovarian
MDA-N = system: MDA-N
MCF7 breast = system: MCF7 breast
CAKI-1 renal = system: CAKI-1 renal
RXF 393 renal = system: RXF 393 renal
LOX IMVI melanoma = system: LOX IMVI melanoma
KM12 colon = system: KM12 colon
MDA-MB-435 = system: MDA-MB-435
786-0 renal = system: 786-0 renal
CCRF-CEM leukemia = system: CCRF-CEM leukemia
HS 578T breast = system: HS 578T breast
TK-10 renal = system: TK-10 renal
MALME-3M melanoma = system: MALME-3M melanoma
DU-145 prostate = system: DU-145 prostate
M14 melanoma = system: M14 melanoma
HCT-116 colon = system: HCT-116 colon
OVCAR-3 ovarian = system: OVCAR-3 ovarian
NCI/ADR-RES ovarian = system: NCI/ADR-RES ovarian
RPMI-8226 leukemia = system: RPMI-8226 leukemia
UACC-62 melanoma = system: UACC-62 melanoma
UO-31 renal = system: UO-31 renal
SR leukemia = system: SR leukemia
HT29 colon = system: HT29 colon
SK-MEL-28 melanoma = system: SK-MEL-28 melanoma
HOP-62 NSCLC = system: HOP-62 NSCLC
SF-268 CNS = system: SF-268 CNS
MOLT-4 leukemia = system: MOLT-4 leukemia
SNB-19 CNS = system: SNB-19 CNS
HOP-92 NSCLC = system: HOP-92 NSCLC
T-47D breast = system: T-47D breast
MDA-MB-231 breast = system: MDA-MB-231 breast
SW-620 colon = system: SW-620 colon
NCI-H23 lung = system: NCI-H23 lung
K-562 leukemia = system: K-562 leukemia
ACHN renal = system: ACHN renal
HCT-15 colon = system: HCT-15 colon
A549 NSCLC = system: A549 NSCLC
A498 renal = system: A498 renal
OVCAR-8 ovarian = system: OVCAR-8 ovarian
EKVX NSCLC = system: EKVX NSCLC
OVCAR-5 ovarian = system: OVCAR-5 ovarian
UACC-257 melanoma = system: UACC-257 melanoma
COLO 205 colon = system: COLO 205 colon
SF-295 CNS = system: SF-295 CNS
BT-549 breast = system: BT-549 breast
NCI-H460 lung = system: NCI-H460 lung
HL-60(TB) leukemia = system: HL-60(TB) leukemia
SK-MEL-2 melanoma = system: SK-MEL-2 melanoma
NCI-H226 lung = system: NCI-H226 lung
SF-539 CNS = system: SF-539 CNS
SNB-75 CNS = system: SNB-75 CNS
U251 CNS = system: U251 CNS

CC(C)[C@]12O[C@H]1[C@@H]1O[C@]13[C@]1(O[C@H]1C[C@H]1C4=C(CC[C@@]13C)C(=O)OC4)[C@@H]2O
GI50 (NCI-H522 lung): 11.4 nM
TGI (NCI-H522 lung): 157 nM and 36.6 nM
TGI (SK-OV-3 ovarian): > 100000 nM
GI50 (HCC-2998 colon): 21.2 nM
TGI (HCC-2998 colon): 91.2 nM and 761 nM
GI50 (OVCAR-4 ovarian): 17.4 nM
GI50 (SK-MEL-5 melanoma): 13.1 nM
TGI (SK-MEL-5 melanoma): 21.3 nM and 26.5 nM
GI50 (IGROV1 ovarian): 25.7 nM
TGI (IGROV1 ovarian): > 100000 nM
TGI (MDA-N): 23.8 nM
GI50 (MCF7 breast): < 10 nM
GI50 (CAKI-1 renal): 11.1 nM and < 10 nM
TGI (CAKI-1 renal): > 100000 nM
GI50 (RXF 393 renal): 17.2 nM and < 10.7 nM
TGI (RXF 393 renal): 35.3 nM and < 16.9 nM
GI50 (LOX IMVI melanoma): < 10 nM
TGI (LOX IMVI melanoma): 25.1 nM
GI50 (KM12 colon): 102 nM
GI50 (MDA-MB-435): 12.2 nM
TGI (MDA-MB-435): 21.4 nM and 29.6 nM
GI50 (786-0 renal): 30.3 nM
TGI (786-0 renal): > 100000 nM
GI50 (CCRF-CEM leukemia): 25.5 nM
TGI (CCRF-CEM leukemia): 297 nM
TGI (HS 578T breast): 55.4 nM and 71.8 nM
GI50 (TK-10 renal): 27.8 nM
TGI (TK-10 renal): > 100000 nM
GI50 (MALME-3M melanoma): 18 nM
TGI (MALME-3M melanoma): 32.8 nM and 46.7 nM
GI50 (DU-145 prostate): 16.3 nM
TGI (DU-145 prostate): > 100000 nM
GI50 (M14 melanoma): 15.8 nM
TGI (M14 melanoma): 31.2 nM and 36.1 nM
GI50 (HCT-116 colon): < 10 nM
TGI (HCT-116 colon): > 100000 nM
GI50 (OVCAR-3 ovarian): 19.8 nM
TGI (OVCAR-3 ovarian): 93.2 nM and 377 nM
TGI (NCI/ADR-RES ovarian): 92.2 nM
GI50 (RPMI-8226 leukemia): 3.6 nM and 11 nM
TGI (RPMI-8226 leukemia): 26.5 nM and 91.5 nM
GI50 (UACC-62 melanoma): 11 nM
TGI (UACC-62 melanoma): 24.1 nM and 26 nM
GI50 (UO-31 renal): 18.3 nM
TGI (UO-31 renal): > 100000 nM
GI50 (SR leukemia): 7.13 nM
TGI (SR leukemia): 48.8 nM
GI50 (HT29 colon): 29 nM
TGI (HT29 colon): > 100000 nM
GI50 (SK-MEL-28 melanoma): 11.9 nM
TGI (SK-MEL-28 melanoma): 22.6 nM and 32 nM
GI50 (HOP-62 NSCLC): 24.8 nM
TGI (SF-268 CNS): 241 nM and 218 nM
GI50 (MOLT-4 leukemia): 12.8 nM
TGI (MOLT-4 leukemia): 34.8 nM
GI50 (SNB-19 CNS): 62.7 nM
TGI (SNB-19 CNS): > 100000 nM
GI50 (HOP-92 NSCLC): 20.1 nM
TGI (HOP-92 NSCLC): 107 nM and 80.8 nM
GI50 (T-47D breast): 21.1 nM and 29.2 nM
GI50 (MDA-MB-231 breast): 16.8 nM
TGI (MDA-MB-231 breast): 116 nM
GI50 (SW-620 colon): < 10 nM
TGI (NCI-H23 lung): 15.6 nM
GI50 (K-562 leukemia): 15.1 nM
TGI (K-562 leukemia): > 100000 nM
GI50 (ACHN renal): 10.2 nM
TGI (ACHN renal): > 100000 nM
GI50 (HCT-15 colon): 12.2 nM
TGI (HCT-15 colon): > 2930 nM
GI50 (A549 NSCLC): 27.6 nM and 24.6 nM
TGI (A549 NSCLC): > 100000 nM
GI50 (A498 renal): 27.4 nM
TGI (A498 renal): 45.4 nM and 82.8 nM
GI50 (OVCAR-8 ovarian): 28.5 nM
GI50 (EKVX NSCLC): 16.6 nM
TGI (EKVX NSCLC): 99.4 nM and 283 nM
GI50 (OVCAR-5 ovarian): 32.5 nM and 28.2 nM
TGI (OVCAR-5 ovarian): > 100000 nM
GI50 (UACC-257 melanoma): 10.1 nM and 14.8 nM
TGI (UACC-257 melanoma): 34.1 nM and 47.6 nM
GI50 (COLO 205 colon): 11.7 nM
TGI (COLO 205 colon): 21.9 nM and 36.6 nM
TGI (SF-295 CNS): 646 nM and 934 nM
GI50 (BT-549 breast): 21.4 nM and < 13 nM
TGI (BT-549 breast): 178 nM and 34.7 nM
GI50 (NCI-H460 lung): < 10 nM
TGI (NCI-H460 lung): > 100000 nM
GI50 (HL-60(TB) leukemia): < 11.1 nM
TGI (HL-60(TB) leukemia): 49.5 nM
GI50 (SK-MEL-2 melanoma): 15.7 nM
TGI (SK-MEL-2 melanoma): 19.5 nM and 32.3 nM
GI50 (NCI-H226 lung): < 11 nM
TGI (NCI-H226 lung): 73.1 nM and 120 nM
GI50 (SF-539 CNS): 14.6 nM
TGI (SF-539 CNS): 26 nM and 35.8 nM
GI50 (SNB-75 CNS): 16.8 nM
TGI (SNB-75 CNS): 35 nM and 39.8 nM
GI50 (U251 CNS): 37.9 nM
TGI (U251 CNS): > 100000 nM
